Experimental data as given in PubChem BioAssay (NCI).
Several values for one entry are separate records, joined by “and”; a condition that tells them apart may be missing. Equal values may be shown once.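 Step 1: Grow cells in 96-well plates. Step 2: Expose to compound for 48 hours at 5 concentrations. Step 3: Interpolate endpoints linearly; if unreached, use highest concentration. GI50: concentration for 50% inhibition of growth. The concentration for full growth arrest is given as TGI.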

Assays:
Test in all cases: NCI anticancer screen, dose series, 48 h
SF-539 CNS = system: SF-539 CNS
HL-60(TB) leukemia = system: HL-60(TB) leukemia
T-47D breast = system: T-47D breast
SF-295 CNS = system: SF-295 CNS
DU-145 prostate = system: DU-145 prostate
OVCAR-3 ovarian = system: OVCAR-3 ovarian
ACHN renal = system: ACHN renal
K-562 leukemia = system: K-562 leukemia
SK-MEL-28 melanoma = system: SK-MEL-28 melanoma
SF-268 CNS = system: SF-268 CNS
A498 renal = system: A498 renal
M14 melanoma = system: M14 melanoma
HCT-15 colon = system: HCT-15 colon
HCT-116 colon = system: HCT-116 colon
UACC-257 melanoma = system: UACC-257 melanoma
LOX IMVI melanoma = system: LOX IMVI melanoma
HS 578T breast = system: HS 578T breast
CAKI-1 renal = system: CAKI-1 renal
MALME-3M melanoma = system: MALME-3M melanoma
TK-10 renal = system: TK-10 renal
NCI-H226 lung = system: NCI-H226 lung
PC-3 prostate = system: PC-3 prostate
SNB-19 CNS = system: SNB-19 CNS
MCF7 breast = system: MCF7 breast
UACC-62 melanoma = system: UACC-62 melanoma
SR leukemia = system: SR leukemia
MDA-MB-231 breast = system: MDA-MB-231 breast
NCI/ADR-RES ovarian = system: NCI/ADR-RES ovarian
U251 CNS = system: U251 CNS
EKVX NSCLC = system: EKVX NSCLC
A549 NSCLC = system: A549 NSCLC
RXF 393 renal = system: RXF 393 renal
SK-OV-3 ovarian = system: SK-OV-3 ovarian
OVCAR-8 ovarian = system: OVCAR-8 ovarian
MDA-MB-435 = system: MDA-MB-435
NCI-H460 lung = system: NCI-H460 lung
786-0 renal = system: 786-0 renal
SN12C renal = system: SN12C renal
SNB-75 CNS = system: SNB-75 CNS
OVCAR-4 ovarian = system: OVCAR-4 ovarian
OVCAR-5 ovarian = system: OVCAR-5 ovarian
UO-31 renal = system: UO-31 renal
HCC-2998 colon = system: HCC-2998 colon
KM12 colon = system: KM12 colon
SK-MEL-2 melanoma = system: SK-MEL-2 melanoma
HOP-62 NSCLC = system: HOP-62 NSCLC
BT-549 breast = system: BT-549 breast
CCRF-CEM leukemia = system: CCRF-CEM leukemia
RPMI-8226 leukemia = system: RPMI-8226 leukemia
SK-MEL-5 melanoma = system: SK-MEL-5 melanoma
MOLT-4 leukemia = system: MOLT-4 leukemia
IGROV1 ovarian = system: IGROV1 ovarian
SW-620 colon = system: SW-620 colon
NCI-H23 lung = system: NCI-H23 lung
COLO 205 colon = system: COLO 205 colon
HT29 colon = system: HT29 colon
NCI-H522 lung = system: NCI-H522 lung
HOP-92 NSCLC = system: HOP-92 NSCLC

With O=C(NOCCO)c1ccc2cncn2c1Nc1ccc(I)cc1F the GI50 (SF-539 CNS) was > 10000 nM and 12400 nM, the TGI (SF-539 CNS) was > 100000 nM and the GI50 (HL-60(TB) leukemia) was 1.91 nM and < 10 nM. The TGI (HL-60(TB) leukemia) was > 100000 nM, the GI50 (T-47D breast) was > 10000 nM and 51100 nM and the TGI (T-47D breast) was > 100000 nM. For the same compound, the GI50 (SF-295 CNS) was > 56500 nM, the TGI (SF-295 CNS) was > 100000 nM and the GI50 (DU-145 prostate) was > 10000 nM and 19900 nM. The TGI (DU-145 prostate) was > 100000 nM, the GI50 (OVCAR-3 ovarian) was > 10000 nM and 32700 nM and the TGI (OVCAR-3 ovarian) was > 100000 nM. For the same compound, the GI50 (ACHN renal) was 300 nM, the TGI (ACHN renal) was > 100000 nM and the GI50 (K-562 leukemia) was 359 nM and 219 nM. For the same compound, the TGI (K-562 leukemia) was > 100000 nM, the GI50 (SK-MEL-28 melanoma) was 3 nM and < 10 nM and the TGI (SK-MEL-28 melanoma) was 71.7 nM and 198 nM. For the same compound, the GI50 (SF-268 CNS) was > 10000 nM and 22000 nM, the TGI (SF-268 CNS) was > 100000 nM and the GI50 (A498 renal) was 6.06 nM and < 10 nM. The TGI (A498 renal) was 54.2 nM and 43 nM, the GI50 (M14 melanoma) was 2.86 nM and < 10 nM and the GI50 (HCT-15 colon) was > 2240 nM and 1720 nM. For the same compound, the TGI (HCT-15 colon) was > 100000 nM, the GI50 (HCT-116 colon) was 10.1 nM and < 10 nM and the TGI (HCT-116 colon) was > 10000 nM and 20600 nM. The GI50 (UACC-257 melanoma) was 2.34 nM and < 10 nM, the TGI (UACC-257 melanoma) was 12.7 nM and < 14.1 nM and the GI50 (LOX IMVI melanoma) was 49.3 nM and 63.5 nM. The TGI (LOX IMVI melanoma) was > 10000 nM and 47100 nM, the GI50 (HS 578T breast) was > 10000 nM and 60600 nM and the TGI (HS 578T breast) was > 100000 nM. For the same compound, the GI50 (CAKI-1 renal) was 111 nM and 292 nM, the TGI (CAKI-1 renal) was > 100000 nM and the GI50 (MALME-3M melanoma) was 2.03 nM and < 10 nM. For the same compound, the TGI (MALME-3M melanoma) was 18.6 nM and < 10 nM, the GI50 (TK-10 renal) was 8.74 nM and < 12.9 nM and the TGI (TK-10 renal) was > 100000 nM. For the same compound, the GI50 (NCI-H226 lung) was 4860 nM and 7370 nM, the TGI (NCI-H226 lung) was > 100000 nM and the GI50 (PC-3 prostate) was > 10000 nM and 45400 nM. For the same compound, the TGI (PC-3 prostate) was > 100000 nM, the GI50 (SNB-19 CNS) was > 10000 nM and 1990 nM and the TGI (SNB-19 CNS) was > 100000 nM. The GI50 (MCF7 breast) was > 10000 nM and 26200 nM, the TGI (MCF7 breast) was > 100000 nM and the GI50 (UACC-62 melanoma) was 2.55 nM and < 10 nM. The TGI (UACC-62 melanoma) was 34.3 nM and 43.3 nM, the GI50 (SR leukemia) was > 10000 nM and 19100 nM and the TGI (SR leukemia) was > 100000 nM. The GI50 (MDA-MB-231 breast) was 34.3 nM and 28.3 nM, the TGI (MDA-MB-231 breast) was > 100000 nM and the GI50 (NCI/ADR-RES ovarian) was > 10000 nM and 29400 nM. The TGI (NCI/ADR-RES ovarian) was > 100000 nM, the GI50 (U251 CNS) was 722 nM and the TGI (U251 CNS) was > 90100 nM. For the same compound, the GI50 (EKVX NSCLC) was 62.9 nM, the TGI (EKVX NSCLC) was > 10000 nM and the GI50 (A549 NSCLC) was 143 nM and 132 nM. The TGI (A549 NSCLC) was > 100000 nM, the GI50 (RXF 393 renal) was 188 nM and 303 nM and the TGI (RXF 393 renal) was > 10000 nM and 21400 nM. The GI50 (SK-OV-3 ovarian) was > 3150 nM and 791 nM, the TGI (SK-OV-3 ovarian) was > 96200 nM and the GI50 (OVCAR-8 ovarian) was > 10000 nM and 19400 nM. For the same compound, the TGI (OVCAR-8 ovarian) was > 100000 nM, the GI50 (MDA-MB-435) was 7.56 nM and < 10 nM and the TGI (MDA-MB-435) was > 100000 nM. The GI50 (NCI-H460 lung) was > 10000 nM and 21900 nM, the TGI (NCI-H460 lung) was > 100000 nM and the GI50 (786-0 renal) was > 10000 nM and 27100 nM. For the same compound, the TGI (786-0 renal) was > 100000 nM, the GI50 (SN12C renal) was > 10000 nM and 19800 nM and the TGI (SN12C renal) was > 100000 nM. The GI50 (SNB-75 CNS) was > 8850 nM and 14300 nM, the TGI (SNB-75 CNS) was > 100000 nM and the GI50 (OVCAR-4 ovarian) was > 10000 nM and 4290 nM. The TGI (OVCAR-4 ovarian) was > 100000 nM, the GI50 (OVCAR-5 ovarian) was 3.13 nM and < 10 nM and the TGI (OVCAR-5 ovarian) was > 100000 nM. The GI50 (UO-31 renal) was 59.6 nM and 45.5 nM, the TGI (UO-31 renal) was > 100000 nM and the GI50 (HCC-2998 colon) was 2.99 nM and < 10 nM. For the same compound, the GI50 (KM12 colon) was 26.8 nM and 18 nM, the TGI (KM12 colon) was > 100000 nM and the GI50 (SK-MEL-2 melanoma) was 1.27 nM and < 10 nM. For the same compound, the TGI (SK-MEL-2 melanoma) was 6.36 nM and < 10 nM, the GI50 (HOP-62 NSCLC) was 15.9 nM and < 18.2 nM and the TGI (HOP-62 NSCLC) was > 71400 nM. The GI50 (BT-549 breast) was > 10000 nM and 11100 nM, the TGI (BT-549 breast) was > 91700 nM and the GI50 (CCRF-CEM leukemia) was > 10000 nM and 28100 nM. For the same compound, the TGI (CCRF-CEM leukemia) was > 100000 nM, the GI50 (RPMI-8226 leukemia) was > 10000 nM and 24600 nM and the TGI (RPMI-8226 leukemia) was > 100000 nM. The GI50 (SK-MEL-5 melanoma) was 3940 nM, the TGI (SK-MEL-5 melanoma) was > 100000 nM and the GI50 (MOLT-4 leukemia) was > 10000 nM and 35100 nM. For the same compound, the TGI (MOLT-4 leukemia) was > 100000 nM, the GI50 (IGROV1 ovarian) was 13 nM and 53.2 nM and the TGI (IGROV1 ovarian) was > 100000 nM. The GI50 (SW-620 colon) was 3.86 nM and < 10 nM, the TGI (SW-620 colon) was > 100000 nM and the GI50 (NCI-H23 lung) was 18.9 nM and 19.5 nM. For the same compound, the TGI (NCI-H23 lung) was > 10000 nM and 45200 nM, the GI50 (COLO 205 colon) was 2.35 nM and < 10 nM and the TGI (COLO 205 colon) was 803 nM. For the same compound, the GI50 (HT29 colon) was 3.07 nM and < 10 nM, the TGI (HT29 colon) was > 100000 nM and the GI50 (NCI-H522 lung) was > 3690 nM and 16900 nM. For the same compound, the TGI (NCI-H522 lung) was > 100000 nM, the GI50 (HOP-92 NSCLC) was 14.7 nM and 10.3 nM and the TGI (HOP-92 NSCLC) was 325 nM and 81.1 nM.
